Measurements published in the SangsterLogP compilation.

assay: method code SF-AS, from DOI: 10.1016/0223-5234(89)90112-8; conditions: not given

SMILES | logP
CN1CCOC(O)(c2ccc(Br)cc2)C1 (stereo not drawn) | 1.57
CN1CCOC(O)(c2cccc(C(F)(F)F)c2)C1 (stereo not drawn) | 1.39
CCCCCCCCOC1(c2ccccc2)CN(C)CCO1 (stereo not drawn) | 2.32

Second part, the compound after the results:

logP | SMILES
1.87 | CC1C(c2ccccc2)OC(O)(c2ccccc2)CN1C (stereo not drawn)
2.19 | CCCOC1(c2ccc(Br)cc2)CN(C)CCO1 (stereo not drawn)
2.11 | CN1CCOC(OCCc2ccccc2)(c2ccccc2)C1 (stereo not drawn)

same assay, conditions: pH 7.4

SMILES | logD
CCOC1(c2ccccc2)OCCN(C)C1C (stereo not drawn) | 1.74
C=CCOC1(c2ccccc2)CN(C)CCO1 (stereo not drawn) | 1.92
CN1CCOC(O)C1c1ccccc1 (stereo not drawn) | 0.97
CC1CN(C)CC(O)(c2ccccc2)O1 (stereo not drawn) | 1.48
CC(C)COC1(c2ccccc2)CN(C)CCO1 (stereo not drawn) | 1.98
CCCOC1(c2ccccc2)CN(C)CC(C)O1 (stereo not drawn) | 1.96
CN1CCOC(O)(c2ccccc2)C1 (stereo not drawn) | 1.3
CCCOC1(c2ccccc2)CN(C)CCO1 (stereo not drawn) | 1.95
CC1N(C)CCOC1(O)c1ccccc1 (stereo not drawn) | 1.31

The remaining lines, values ahead:

logD | SMILES
2.05 | CCCCOC1(c2ccccc2)CN(C)CCO1 (stereo not drawn)
1.76 | C#CCOC1(c2ccccc2)CN(C)CCO1 (stereo not drawn)
2.05 | CN1CCOC(OCc2ccccc2)(c2ccccc2)C1 (stereo not drawn)
